Test results: patent US4376789A, “Surfactants which are polyhydric alcohol partial esters of adducts of maleic anhydride with an unsaturated carboxylic acid” (Grillo-Werke AG, priority 1980, dated 1983)

Test system: eye
Assay: Eye irritation test according to Draize
Type: in vivo
Source text: The good compatibility of the partial esters according to the invention with skin and mucous membranes is evident from the following investigations. In Table 1, the results of an eye irritation test, according to Draize, for the products of the invention are compared with those of anionic surfactants known to be acceptable dermatologically. It should be noted that substantially higher concentrations of the active products of the invention, than of the prior art compounds, were used in the test.
The Draize test was performed according to the provisions of the Appraisal of the Safety of Chemicals in Food, Drugs and Cosmetics, published by the United States Food and Drug Administration in 1959. According to this method, appraisal points are assigned as follows: […]

Compound	Evaluation points according to Draize score (concentration % active substance: 100 (Examples 1, 3, 4), 65 (Example 2), 50 (Example 5, Na lauryl ether sulfate, undecylic acid semi-ester Na salt), 40 (tallow coco fat alcohol sulfate Na salt), 35 (ammonium lauryl sulfate))	Evaluation points according to Draize score (in vivo)	Evaluation range (Draize) (in vivo)
CCCCCCCCCCCCOS(=O)(=O)O.N [Ammonium lauryl sulfate]	12.9 Points		
CCCCCCCCCCC(=O)NCCOC(=O)CC(C(=O)[O-])S(=O)(=O)O.CCCCCCCCCCC(=O)NCCOC(=O)CC(C(=O)[O-])S(=O)(=O)O.[Na+].[Na+] (stereo not shown) [Na salt of undecylic acid monethanolamide sulfo succinic acid semi-ester]		19.6 Points	Slightly irritant
Na lauryl ether sulfate		14.2 Points	Slightly irritant
Tallow coco fat alcohol sulfate Na salt		24.3 Points	Slightly irritant
